Series [1] addresses Glutamate NMDA receptor. The series is described as follows: Positive allosteric modulation of NMDAR in rat hippocampal neurons by Whole-cell and excised-patch recording method. To be noted: hippocampal neuron.
Series [2] concerns the target T1, Glutamate receptor ionotropic, NMDA 2B (Homo sapiens, UniProt Q05586+Q13224). The series is described as follows: Positive allosteric modulation of GluN2B receptor (unknown origin) expressed in Doxycycline-inducible HEK293 cells by calcium influx assay.
The target of series [3] is T2, Glutamate receptor ionotropic, NMDA 2A (Homo sapiens, UniProt Q05586+Q12879). The series is described as follows: Positive allosteric modulation of GluN2A receptor (unknown origin) expressed in Doxycycline-inducible HEK293 cells by calcium influx assay.
In series [4] the target is T3, Glutamate receptor ionotropic, NMDA 2C (Homo sapiens, UniProt Q05586+Q14957). The experiment in a line: Positive allosteric modulation of GluN2C receptor (unknown origin) expressed in Doxycycline-inducible HEK293 cells by calcium influx assay.
T3 sequence (Q14957 whole entry, one chain of several): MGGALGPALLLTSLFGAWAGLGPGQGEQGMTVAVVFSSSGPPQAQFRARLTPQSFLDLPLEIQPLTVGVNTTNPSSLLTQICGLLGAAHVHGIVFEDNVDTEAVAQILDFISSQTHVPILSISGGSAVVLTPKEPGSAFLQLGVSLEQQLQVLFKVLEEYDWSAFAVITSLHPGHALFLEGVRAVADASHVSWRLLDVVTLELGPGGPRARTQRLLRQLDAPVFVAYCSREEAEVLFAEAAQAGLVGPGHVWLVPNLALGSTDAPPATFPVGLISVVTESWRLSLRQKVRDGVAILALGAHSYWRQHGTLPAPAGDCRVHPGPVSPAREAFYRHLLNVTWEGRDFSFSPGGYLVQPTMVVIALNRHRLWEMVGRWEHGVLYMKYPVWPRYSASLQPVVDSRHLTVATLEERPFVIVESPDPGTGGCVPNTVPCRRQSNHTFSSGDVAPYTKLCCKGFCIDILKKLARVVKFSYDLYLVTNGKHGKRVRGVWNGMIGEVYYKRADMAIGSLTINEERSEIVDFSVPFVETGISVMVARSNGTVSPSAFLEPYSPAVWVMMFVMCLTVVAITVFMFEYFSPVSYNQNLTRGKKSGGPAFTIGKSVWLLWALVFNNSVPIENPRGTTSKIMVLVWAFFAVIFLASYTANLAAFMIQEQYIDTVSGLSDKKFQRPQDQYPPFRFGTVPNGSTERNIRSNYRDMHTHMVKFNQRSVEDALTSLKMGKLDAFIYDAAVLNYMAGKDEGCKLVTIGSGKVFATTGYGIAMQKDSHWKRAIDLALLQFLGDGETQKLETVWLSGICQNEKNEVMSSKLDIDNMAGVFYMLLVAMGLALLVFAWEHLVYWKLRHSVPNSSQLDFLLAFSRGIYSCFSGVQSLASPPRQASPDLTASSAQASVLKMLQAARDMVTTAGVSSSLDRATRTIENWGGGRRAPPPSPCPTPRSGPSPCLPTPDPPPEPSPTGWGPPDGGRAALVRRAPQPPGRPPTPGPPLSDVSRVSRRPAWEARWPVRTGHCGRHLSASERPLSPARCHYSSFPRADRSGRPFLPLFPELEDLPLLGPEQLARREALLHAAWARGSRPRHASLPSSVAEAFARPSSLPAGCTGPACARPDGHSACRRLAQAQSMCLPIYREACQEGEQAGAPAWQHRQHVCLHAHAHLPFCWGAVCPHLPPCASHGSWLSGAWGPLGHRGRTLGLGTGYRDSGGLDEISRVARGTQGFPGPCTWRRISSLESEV
Series [5] deals with T4, Glutamate receptor ionotropic, NMDA 2D (Homo sapiens, UniProt O15399+Q05586). The experiment in a line: Positive allosteric modulation of GluN2D receptor (unknown origin) expressed in Doxycycline-inducible HEK293 cells by calcium influx assay.
T4 sequence (O15399 whole entry, one chain of several): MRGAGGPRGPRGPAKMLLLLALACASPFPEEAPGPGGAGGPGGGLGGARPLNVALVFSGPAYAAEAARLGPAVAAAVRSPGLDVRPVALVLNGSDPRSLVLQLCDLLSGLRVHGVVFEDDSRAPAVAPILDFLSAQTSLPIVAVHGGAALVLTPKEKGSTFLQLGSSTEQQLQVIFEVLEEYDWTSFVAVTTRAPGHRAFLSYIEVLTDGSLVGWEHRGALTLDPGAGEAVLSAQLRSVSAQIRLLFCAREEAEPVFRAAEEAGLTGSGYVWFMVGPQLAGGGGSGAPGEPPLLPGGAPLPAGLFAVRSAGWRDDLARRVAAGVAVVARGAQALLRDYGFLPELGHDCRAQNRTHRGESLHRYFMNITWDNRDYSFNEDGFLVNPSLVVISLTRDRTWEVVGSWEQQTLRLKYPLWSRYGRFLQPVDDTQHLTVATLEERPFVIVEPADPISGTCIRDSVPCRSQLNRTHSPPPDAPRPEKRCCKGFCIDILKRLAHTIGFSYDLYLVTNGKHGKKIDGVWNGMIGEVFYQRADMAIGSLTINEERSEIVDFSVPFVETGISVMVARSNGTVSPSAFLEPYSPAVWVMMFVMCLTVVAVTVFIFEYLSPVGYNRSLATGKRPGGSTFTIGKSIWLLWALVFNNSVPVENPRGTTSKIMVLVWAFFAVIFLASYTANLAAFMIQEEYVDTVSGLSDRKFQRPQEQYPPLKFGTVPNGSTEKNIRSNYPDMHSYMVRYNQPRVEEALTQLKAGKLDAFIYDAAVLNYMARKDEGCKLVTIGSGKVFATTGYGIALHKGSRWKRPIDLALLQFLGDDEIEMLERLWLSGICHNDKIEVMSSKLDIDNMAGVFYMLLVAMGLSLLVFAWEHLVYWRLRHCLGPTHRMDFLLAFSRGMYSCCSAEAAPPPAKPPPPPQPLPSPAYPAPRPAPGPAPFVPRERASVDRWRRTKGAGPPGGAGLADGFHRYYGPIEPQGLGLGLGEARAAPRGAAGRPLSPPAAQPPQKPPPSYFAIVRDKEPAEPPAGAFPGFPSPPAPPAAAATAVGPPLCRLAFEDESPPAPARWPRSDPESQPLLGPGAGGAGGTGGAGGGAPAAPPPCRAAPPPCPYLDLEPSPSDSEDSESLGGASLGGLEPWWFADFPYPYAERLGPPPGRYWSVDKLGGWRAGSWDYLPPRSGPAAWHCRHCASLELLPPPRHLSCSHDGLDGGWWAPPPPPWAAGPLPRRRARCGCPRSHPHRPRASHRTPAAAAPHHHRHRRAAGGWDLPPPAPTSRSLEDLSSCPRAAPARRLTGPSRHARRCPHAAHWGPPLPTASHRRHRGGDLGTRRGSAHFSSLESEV
In series [6] the target is T5, Glutamate receptor ionotropic, NMDA 2C (Rattus norvegicus, UniProt P35439+Q00961).
Description: Positive allosteric modulation of recombinant rat GluN2C receptor expressed in Xenopus laevis stage VI oocytes assessed as glutamate/glycine-induced potentiation of current by 2EVC method
Series [7] has as its target T6, Glutamate receptor ionotropic, NMDA 2D (Rattus norvegicus, UniProt P35439+Q62645).
Description: Positive allosteric modulation of recombinant rat GluN2D receptor expressed in Xenopus laevis stage VI oocytes assessed as glutamate/glycine-induced potentiation of current by 2EVC method
Series [8] can be described thus: Kinetic solubility of compound in PBS at pH 7.3 by nephelometry.
Series [9] can be described thus: Stability in human plasma assessed as half life.
Series [10] addresses T7, Glutamate receptor ionotropic, NMDA 2B (Rattus norvegicus, UniProt P35439+Q00960).
Description: Positive allosteric modulation of recombinant rat GluN2B receptor expressed in Xenopus laevis stage VI oocytes assessed as glutamate/glycine-induced potentiation of current by 2EVC method
Series [11] can be described thus: Stability in mouse plasma assessed as half life.
The nature of series [12]: Stability in rat plasma assessed as half life.
Series [13] can be described thus: in vitro. To be noted: human, liver microsomes.
Description: Intrinsic clearance in human liver microsomes at 3 uM preincubated for 5 mins followed by NADPH addition measured up to 30 mins by LC-MS/MS analysis
Series [14] deals with Glutamate receptor ionotropic, NMDA 2B (Rattus norvegicus, UniProt Q00960). The settings on record: oocyte.
Description: (§1) Positive allosteric modulation of recombinant rat GluN2B receptor expressed in Xenopus oocytes assessed as glutamate/glycine-induced potentiation of current by 2EVC method
The target of series [15] is Glutamate receptor ionotropic, NMDA 2C (Rattus norvegicus, UniProt Q00961). The settings on record: oocyte.
Description: (§2) Positive allosteric modulation of recombinant rat GluN2C receptor expressed in Xenopus oocytes assessed as glutamate/glycine-induced potentiation of current by 2EVC method
The target in series [16] is Glutamate receptor ionotropic, NMDA 2D (Rattus norvegicus, UniProt Q62645). To be noted: oocyte.
Description: (§3) Positive allosteric modulation of recombinant rat GluN2D receptor expressed in Xenopus oocytes assessed as glutamate/glycine-induced potentiation of current by 2EVC method
The target in series [17] is T5, Glutamate receptor ionotropic, NMDA 2C. The source holds these as a separate data set.
Description: as §2
The target of series [18] is Translocator protein (Homo sapiens, UniProt P30536). The series is described as follows: Inhibition of peripheral benzodiazepine receptor (unknown origin) by radioligand binding assay.
Translocator protein, sequence (P30536 whole entry): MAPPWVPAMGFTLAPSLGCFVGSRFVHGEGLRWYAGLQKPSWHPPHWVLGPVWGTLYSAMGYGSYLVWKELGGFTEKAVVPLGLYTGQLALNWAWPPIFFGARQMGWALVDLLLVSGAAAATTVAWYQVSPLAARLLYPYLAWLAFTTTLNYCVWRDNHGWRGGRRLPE
For series [19], the target named is T6, Glutamate receptor ionotropic, NMDA 2D. This is another data set of the same source.
Description: as §3
The target of series [20] is T7, Glutamate receptor ionotropic, NMDA 2B. This is another data set of the same source.
Description: as §1
Series [21] addresses T3, Glutamate receptor ionotropic, NMDA 2C. The series is described as follows: Positive allosteric modulation of GluN2C receptor (unknown origin).
For series [22], the target named is T2, Glutamate receptor ionotropic, NMDA 2A. The series is described as follows: Positive allosteric modulation of GluN2A receptor (unknown origin).
Series [23] has as its target T4, Glutamate receptor ionotropic, NMDA 2D. The experiment in a line: Positive allosteric modulation of GluN2D receptor (unknown origin).
Series [24] concerns the target T1, Glutamate receptor ionotropic, NMDA 2B. The experiment in a line: Positive allosteric modulation of human GluN2B receptor expressed in HEK293 cells by Whole-cell patch-clamp method.
Series [25] has as its target T3, Glutamate receptor ionotropic, NMDA 2C. The series is described as follows: Positive allosteric modulation of human GluN2C receptor expressed in HEK293 cells by Whole-cell patch-clamp method.

T1 sequence (Q13224 whole entry, one chain of several): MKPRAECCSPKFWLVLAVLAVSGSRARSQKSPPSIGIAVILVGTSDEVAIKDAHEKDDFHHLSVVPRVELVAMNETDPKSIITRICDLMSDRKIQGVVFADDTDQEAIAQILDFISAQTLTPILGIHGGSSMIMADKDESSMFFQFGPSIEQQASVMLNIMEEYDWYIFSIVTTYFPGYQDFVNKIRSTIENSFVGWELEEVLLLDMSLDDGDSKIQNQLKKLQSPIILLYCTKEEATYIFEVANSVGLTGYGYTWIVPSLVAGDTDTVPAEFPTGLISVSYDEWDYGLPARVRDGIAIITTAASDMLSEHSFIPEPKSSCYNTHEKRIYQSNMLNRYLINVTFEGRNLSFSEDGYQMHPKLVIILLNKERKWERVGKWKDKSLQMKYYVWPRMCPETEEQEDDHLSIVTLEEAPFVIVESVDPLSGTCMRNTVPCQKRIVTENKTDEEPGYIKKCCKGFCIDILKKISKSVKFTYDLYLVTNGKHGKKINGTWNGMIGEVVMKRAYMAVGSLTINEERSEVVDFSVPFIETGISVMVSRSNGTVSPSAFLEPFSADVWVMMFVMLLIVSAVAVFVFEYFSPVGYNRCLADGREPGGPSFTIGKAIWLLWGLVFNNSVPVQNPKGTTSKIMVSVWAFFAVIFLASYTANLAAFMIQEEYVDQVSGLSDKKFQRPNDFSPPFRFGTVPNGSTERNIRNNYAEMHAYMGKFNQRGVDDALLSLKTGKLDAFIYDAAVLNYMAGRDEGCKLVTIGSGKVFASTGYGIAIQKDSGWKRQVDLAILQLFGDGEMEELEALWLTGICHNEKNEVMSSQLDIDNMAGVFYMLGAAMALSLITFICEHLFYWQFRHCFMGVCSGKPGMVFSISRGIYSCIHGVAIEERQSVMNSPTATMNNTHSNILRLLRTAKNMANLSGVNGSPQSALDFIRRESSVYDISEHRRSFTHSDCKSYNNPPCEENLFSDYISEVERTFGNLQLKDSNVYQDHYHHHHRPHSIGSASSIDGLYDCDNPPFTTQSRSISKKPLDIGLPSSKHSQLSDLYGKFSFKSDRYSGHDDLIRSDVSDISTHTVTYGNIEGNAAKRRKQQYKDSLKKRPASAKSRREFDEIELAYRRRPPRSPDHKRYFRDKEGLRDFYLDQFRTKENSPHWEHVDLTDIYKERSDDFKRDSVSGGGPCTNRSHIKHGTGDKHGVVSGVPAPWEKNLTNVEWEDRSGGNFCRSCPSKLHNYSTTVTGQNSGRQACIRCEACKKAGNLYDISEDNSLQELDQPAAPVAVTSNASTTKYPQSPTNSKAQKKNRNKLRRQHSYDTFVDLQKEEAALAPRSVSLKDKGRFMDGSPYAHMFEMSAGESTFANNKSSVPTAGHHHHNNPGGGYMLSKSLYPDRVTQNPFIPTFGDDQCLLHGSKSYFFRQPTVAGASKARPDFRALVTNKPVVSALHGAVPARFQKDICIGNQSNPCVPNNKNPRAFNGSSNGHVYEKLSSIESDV

For `CC(C)[C@@H](O)CC[C@@H](C)[C@H]1CC[C@H]2[C@@H]3CC=C4C[C@@H](O)CC[C@]4(C)[C@H]3CC[C@]12C`, in series [1], the half-maximal effective concentration (EC50) worked out at 1.2 µM.
Consider `CCCc1nc2[nH]c(C)c(NS(=O)(=O)c3ccc(C4CCCCC4)cc3)c(=O)n2n1`, for which the half-maximal effective concentration (EC50) in series [2], in series [3], in [4] and in series [5] was 3 µM in each case.
In the case of `Cc1sc2ncn(CC(=O)N3CCCC3)c(=O)c2c1-c1cccc(Br)c1`, the half-maximal effective concentration (EC50) in series [6] was 12 µM; in [7], 18 µM; in series [10] it was 9.9 µM. Besides, in [8], the kinetic solubility is more than 100 µM. Besides, the half-life in series [9], in series [11] and in series [12] was more than 4 h each time. The molecule also returned an intrinsic clearance (microsomal CLint) at 0.5 h, 3 µM in series [13] of 50 µL/min/mg.
For the molecule `C#CC1(F)CN(C(=O)Cn2cnc3sc(C)c(-c4cccc(Br)c4)c3c2=O)C1`, the EC50 result in series [14], in [15] and in series [16] was “Not_active” each time.
Turning to `C#Cc1sc2ncn(CC(=O)N3CC(C)(F)C3)c(=O)c2c1-c1ccc(F)c(Br)c1`, the results for the concentration giving a half-maximal response (EC50) in series [17], in [19] and in series [20] were 0.82 µM, 1.1 µM and 0.57 µM, respectively. The same molecule returned a Ki in series [18] of 0.55 µM.
Regarding `C[C@H](CC[C@](C)(O)C(F)(F)F)[C@H]1CC[C@H]2[C@@H]3CC=C4C[C@@](C)(O)CC[C@]4(C)[C@H]3CC[C@]12C` [DALZANEMDOR], the EC50 in series [21], in series [22] and in series [23] was 0.079 µM each time.
`C[C@@H](O)[C@@H](C(N)=O)N1C[C@@]2(CCCN2C(=O)OC(C)(C)C)C1=O` [ZELQUISTINEL]: the concentration for a half-maximal effect (EC50) in series [24] and in series [25] was 9.7 µM throughout.

Source of the values: ChEMBL document CHEMBL6134891, “Thienopyrimidinone Derivatives as a GluN2B/C/D Biased, Positive Allosteric Modulator of the N-Methyl-d-Aspartate Receptor” (J Med Chem, 2025).
